This is an account of results in article PMC10648927, “Examining the activity of cefepime-taniborbactam against Burkholderia cepacia complex and Burkholderia gladioli isolated from cystic fibrosis patients in the United States” (Antimicrobial Agents and Chemotherapy, 2023).

This assay has as its target T1, PenA1 β-lactamase (class A carbapenemase) (Burkholderia multivorans, UniProt A0A0H3KN52).
T1 construct: gene ampC
The experiment in a line: steady-state β-lactamase inhibition kinetics (Ki app, k2/K, koff). The note with it: read-out: Taniborbactam. Type of assay: biochemical.

T1 sequence (A0A0H3KN52 entry or part of it): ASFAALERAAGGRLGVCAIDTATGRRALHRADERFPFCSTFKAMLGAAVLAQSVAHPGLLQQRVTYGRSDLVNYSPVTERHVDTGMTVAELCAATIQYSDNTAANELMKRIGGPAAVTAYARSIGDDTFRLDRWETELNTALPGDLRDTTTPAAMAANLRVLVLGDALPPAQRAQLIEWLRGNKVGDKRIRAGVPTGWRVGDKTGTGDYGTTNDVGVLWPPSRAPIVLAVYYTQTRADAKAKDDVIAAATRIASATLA

For the compound `NCCN[C@H]1CC[C@H](CC(=O)N[C@H]2Cc3cccc(C(=O)O)c3OB2O)CC1` [taniborbactam], the Ki was 400 ± 40 nM.
